≈ marks a conversion by molar mass, not a printed value. Where “and” joins values, the source holds several entries; their conditions need not be identical. Identical values can stand only once. Like-named read-outs stand apart in the source and are kept apart here.
Experiments:
[1] = target: purified C. albicans Cho1 (phosphatidylserine synthase) (Candida albicans, UniProt A0A1D8PF32); experiment: malachite-green-based nucleotidase-coupled assay, dose-response; assay type: biochemical; details: top 200 µM, 3 h at 30°C, three replicates
Description: A malachite-green-based nucleotidase-coupled assay was used to measure the PS synthesis activity of Cho1 (Fig. 1B). Cho1 catalyzes the production of PS and cytidylmonophosphate (CMP) from CDP-DAG and serine, where CMP can then be recognized and cleaved by the nucleotidase CD73 to release inorganic phosphate, which is subsequently detected by malachite green. To test whether this malachite-green-based assay can reflect Cho1 activity, a time-course test was performed with a fixed amount of purified Cho1 in the presence of substrates (Fig. 1C).
The bioactives library was purchased from Selleck in 2014, and the remaining libraries (anti-infectives and mechanism of action libraries) were assembled from compounds available at the Chemical Biology and Therapeutics Department at St. Jude Children’s Research Hospital. The anti-infectives library contains a curated list of antimicrobials and antiviral agents ([95]). The bioactive library has a compilation of compounds acquired from commercial sources and external academic collaborators. The mechanism of action set is a dynamic set of well-annotated compounds with comprehensive coverage of human targets and mechanisms of action ([96]). All compounds were dissolved in DMSO and 100 nL was transferred to a 384-well clear bottom plate (ThermoFisher Scientific, cat# 265203) using a Beckman Echo 650 acoustic liquid handler. Equal volumes of either the selective CD73 nucleotidase inhibitor AB680 at a final concentration of 1 µM (MedChemExpress, cat# HY-125286) or DMSO were used as positive and negative controls, respectively. A total of 30–35 ng of purified Cho1 protein was used in each reaction in 50 mM Tris-HCl (pH 8.0) for primary screening, combined with 100 µM CDP-DAG (Avanti, cat# 870510), 5 mM serine, 0.4 ng CD73 nucleotidase (R&D systems, cat# EA002), 1 mM MnCl2, 0.1% APX-100, and 0.1% digitonin, in a total volume of 10 µL. Counter screen reactions were set up by replacing only the purified Cho1 with 150 µM CMP, with all other components remaining constant. The 10 µL primary and counter screening reactions were delivered to each well of 384-well assay plates containing pre-aliquoted compounds from the library using a Multidrop Combi (ThermoFisher Scientific). […] After media transfer, assay plates were incubated for 3 h at 30°C. Plates were then removed and 32 µL of malachite green mixture [6 µL malachite A (2%, wt/vol, ammonium molybdate and 20%, vol/vol, sulfuric acid in H2O) +20 µL H2O + 6 µL malachite B (0.1%, wt/vol, malachite green oxalate and 0.5%, wt/vol, polyvinyl alcohol in H2O)] were added to each well via a MultiDrop Combi and incubated for an additional 10 min at room temperature. After incubation, plates were briefly centrifuged at 500 × g and absorbance at 620 nm was then measured using a Cytation7 plate reader (Biotek, Winooski, VT). Raw absorbance values of the compounds were normalized to DMSO (0% inhibition) and AB680 (100% inhibition) from both primary and counter screens, and % Δinhibition was calculated by […]. Z-factors for each plate were calculated using the in-house program RISE (Robust Investigation of Screening Experiments). All non-PAINs compounds that had >80% Δinhibition progressed to dose-response testing (82 total compounds). Dose-response experiments were performed in triplicate as described above using a 10-point, threefold serial dilution with the top concentration for each compound tested being 200 µM (range: 0.010161–200 μM). The absorbance at 620 nm was then measured using a PHERAstar FS multilabel reader (BMG, Cary, NC). Raw values were once again normalized to DMSO (0% inhibition) and AB680 (100% inhibition) and Z-factors for each plate were calculated using RISE. […]

[2] = system: wild-type C. albicans strain SC5314; experiment: CLSI MIC broth microdilution; assay type: cell-based, Candida albicans; details: for MIC: Candida albicans; for effect on cell growth in all three media: even at 250 µM
Description: We then tested the effects of the six compounds on live cells by determining the minimal inhibitory concentrations (MICs) of these compounds. Following the standard Clinical & Lab Standards Institute (CLSI) MIC broth microdilution methods, wild-type C. albicans strain SC5314 was grown with avasimibe, CBR-5884, tideglusib, ebselen, ML-345, and LOC14 in RPMI MOPS medium (pH 7.0) or alternatively in minimal medium or minimal medium with HEPES (pH 7.0) at 37°C for 48 h, along with a cho1ΔΔ strain as a control (Fig. 3A through C). The concentration of the compounds was varied from 0.5 to 250 µM. […] Ebselen, LOC14, and CBR-5884, on the contrary, stopped cell growth at different concentrations in all three media, with MICs ranging between 7.8 and 31.3 μM (Fig. 3A through D). […] Specific MIC values are summarized in Fig. 3D for all the compounds.
Minimum inhibitory concentration (MIC) was determined following Clinical & Lab Standards Institute (CLSI) MIC broth microdilution protocol (Licensed to Todd Reynolds, license # Ord-1138682) ([98], [99]). Briefly, stock solutions of different compounds (purchased from MedChemExpress) were prepared at a concentration of 10 mM in DMSO and subsequently diluted as required in the same solvent. Wild-type C. albicans strain SC5314, as well as four additional wild-type strains—GDH2346, 3153A, TFPY412, and TFPY2307, were cultured overnight in YPD medium at 30°C, washed with water three times, and then diluted to a concentration of 2 × 10^3 cells/mL (OD600 = 0.00008) in one of the three media [minimal medium, minimal medium buffered with 50 mM HEPES (pH 7.0) and RPMI MOPS (pH 7.0)]. The cho1ΔΔ strain was also included as a control. A volume of 100 µL from each cell suspension was dispensed into the wells of a flat-bottom 96-well plate. An additional 100 µL of corresponding medium, containing twice the final desired concentration of each drug, was added to each well, leading to a final initial inoculum of 1 × 10^3 cells/mL (OD600 = 0.00004). The final DMSO concentration was maintained at 2.5% across all treatments. Following preparation, the plates were incubated at 37°C for 48 h and photos were taken with a Bio-Rad Gel Doc XR + Imaging System.

[3] = precipitation in MIC media; assay type: physicochemical
[4] = target: the molecule itself; experiment: native gel or EMSA; blue native PAGE of purified tag-free Cho1 in digitonin, stained with Coomassie Blue R-250; MW estimated with the band analysis tool of Quantity One
[5] = 10-point dose-response, read-out: Best-fit IC50, inhibition of Cho1
[6] = SC5314, RPMI MOPS pH 7.0, 37°C, 48 h, read-out: Minimal Inhibitory Concentration (MIC): RPMI, MOPS 7.0
[7] = SC5314, minimal medium with 50 mM HEPES pH 7.0, 37°C, 48 h, read-out: Minimal Inhibitory Concentration (MIC): MM, HEPES 7.0
[8] = SC5314, minimal medium, 37°C, 48 h, read-out: Minimal Inhibitory Concentration (MIC): MM

Molecule	IC50 [1, 5]	MIC [2, 6] [µM]	MIC [2, 7] [µM]	MIC [2, 8] [µM]	effect on cell growth in all three media [2]	other results
CC(C)c1cc(C(C)C)c(CC(=O)NS(=O)(=O)Oc2c(C(C)C)cccc2C(C)C)c(C(C)C)c1 [Avasimibe]	~23.4 µM	> 500	> 500	> 500	did not affect cell growth	solubility in MIC media [3]: precipitated at high concentrations
O=c1c2cc(F)ccc2sn1-c1cc(S(=O)(=O)N2CCOCC2)ccc1N1CCOCC1 [ML-345]	≤ 20 µM and ~15.5 µM	–	–	–	–	MIC ([2]; SC5314, 48 h, pH 7, read-out: Minimal Inhibitory Concentration (MIC): MM, HEPES 7.0): > 500 µM; MIC ([2]; SC5314, 48 h, pH 7, read-out: Minimal Inhibitory Concentration (MIC): RPMI, MOPS 7.0): 31.3 µM (≈ 15 µg/mL); MIC ([2]; SC5314, 48 h, read-out: Minimal Inhibitory Concentration (MIC): MM): > 500 µM; effect on cells grown in the minimal media ([2]; minimal media): had no effect
c1ccc(Nc2nc3c(s2)CCCc2[nH]ncc2-3)nc1 [TC-N 22A]	~65.3 µM	–	–	–	–	–
O=c1sn(-c2cccc3ccccc23)c(=O)n1Cc1ccccc1 [Tideglusib]	–	> 500	> 500	> 500	did not affect cell growth	IC50 ([1]; Best-fit IC50, inhibition of Cho1, 10-point dose-response): ≤ 20 µM and ~8.53 µM; solubility in MIC media ([3]; concentrations 0.5 to 250 µM): precipitated at high concentrations
Candida albicans phosphatidylserine synthase Cho1 (enzyme, UniProt A0A1D8PF32 1-273, looked up, Cho1, phosphatidylserine synthase (EC 2.7.8.8) of Candida albicans, CHO1 gene expressed from the TEF1 promoter; A TEV site (ENLYFQG) lies between Cho1 and the HAx3-HISx8 tag; The forward cloning primer begins at the ATG of CHO1; also called PS synthase; CDP-diacylglycerol-serine O-phosphatidyltransferase; not shown: HAx3, C-terminal, cleaved; His8, C-terminal, cleaved) MSDSSATGFSKHQESAIVSDSEGDAIDSELHMSANPPLLRRSSSLFSLSSKDDLPKPDSKEYLKFIDDNRHFSMIRNLHMADFITLLNGFSGFYSIISCLRYTLTGQTHYVQRAHFFILLGLFFDFFDGRVARLRNKSSLMGQELDSLADLVSFGVSPATIAFAIGFRTTVDVLFLAFWVLCGLTRLARFNISVNNIPKDKHGKSQYFEGLPIPTNLFWVGFMALLVYKDWIHDNLPFGIVFQDTSFEFHLVTIGFVLQGCAEISKSLKIPKP	–	–	–	–	–	stoichiometry N [4]: 6

Source: PMC11077991, “The small molecule CBR-5884 inhibits the Candida albicans phosphatidylserine synthase” (mBio, 2024)
